Paper PMC10487310, “Enzyme‐responsive macrocyclic metal complexes for biomedical imaging” (Bioengineering & Translational Medicine, 2022)
Read-outs that look alike come from different tables or passages of the source. Ends that are not written are not given here.

How the values were obtained:
3T3‐L1 cells [1] = experiment: MTT cell viability; assay type: cell-based; conditions: 3T3 cells, 24 h treatment
Experimental: The viability of cells treated with macrocyclam derivatives was assessed by MTT and apoptosis detection assays, and by live/dead cell staining. The 3T3‐L1 cells were seeded onto 24‐well plates at a density of 1 × 10^5 cells per well for 24 h and the cells were treated with macrocyclam derivatives for 24 h. MTT (3‐(4,5‐dimethylthiazol‐2‐yl)‐2,5‐diphenyltetrazolium bromide) solution (final concentration, 500 μM) was added to each well and the cells incubated for 2 h. After aspiration of medium, the cells were dissolved in 200 μl dimethyl sulfoxide (DMSO; Sigma‐Aldrich). Formazan crystals generated by metabolically active cells were quantified by measuring optical density at 570 nm using a microplate reader (Tecan Group Ltd., Seestrasse, Mannedorf, Switzerland). Cell viability was analyzed by calculating the percent optical density of treated cells relative to control cells. Live and dead cell populations were determined using EZ‐view Live/Dead Cell Staining Kits (Biomax, Seoul, Republic of Korea). […] The absorbance of each well was measured at 490/545 nm using fluorescence microscopy (IX70; Olympus, Japan). Cell apoptosis was analyzed using a FACSCalibur flow cytometer (BD Biosciences, CA, USA) with annexin V staining. […] Cell surface expression was analyzed using a FACSCalibur flow cytometer (BD Biosciences), with the results analyzed using FlowJo software (BD Biosciences).

SCC7 tumor [2] = assay type: in vivo, mice; conditions: for tumor/normal tissue (TN) ratio: Gd 0.7 mg/kg, T1-weighted signal intensity
Experimental: (§1) Five‐week‐old Balb/c or athymic nude mice (Raon Bio, Yongin, Republic of Korea) were used for in vivo experiments. All studies using animals conformed to the Guidelines for the Care and Use of Laboratory Animals of the Institute of Laboratory Animal Resources at Seoul National University (approved animal experimental protocol number, SNU‐190821‐5).
(§2) The biodistribution of macrocyclam derivatives was determined by MRI and positron emission tomography/computed tomography (PET/CT) scanning. Five‐week‐old female Balb/c nude mice were subcutaneously inoculated with 1 × 10^6 SCC7 cells on the dorsal left side. When tumor volumes reached 150 mm^3, samples were intravenously administered. For in vivo MRI, Gd@NrMC or Gd@ErMC was injected at a Gd dose of 0.7 mg/kg. The mice were monitored in vivo at different time points using an MRI scanner (Bruker‐Biospin) equipped with an animal‐imaging coil. For PET/CT imaging, ^64Cu@NrMC or ^64Cu@ErMC was injected at a ^64Cu dose of approximately 240 μCi/mouse, and the mice were monitored in vivo at different time point using a PET/CT scanner (Inveon microPET/CT scanner, Siemens Medical Solutions, Malvern, PA, USA).

[3] = Gd loading of macrocyclam derivatives by ICP-MS; assay type: physicochemical; conditions: gadolinium chloride in sodium acetate buffer pH 5.0, 2 h at 80°C, unloaded Gd removed on G-25 column
Experimental: (§3) Metal ions are complexed with macrocyclam derivatives in acidic condition (Figure 2c). The lyophilized macrocyclam derivatives were dissolved in distilled water. A 100 nmol aliquot of NrMC or ErMC was mixed with gadolinium chloride (Sigma‐Aldrich) or radioactive copper‐64 chloride in sodium acetate buffer (pH 5.0) and incubated for 2 h at 80°C. Unloaded Gd was removed using a PD‐SpinTrap™ G‐25 column (GE Healthcare, Little Chalfont, UK). The loading amount of Gd in each sample was measured by inductively coupled plasma mass spectrometry (ICP‐MS, Varian 820‐MS; Varian, Palo Alto, CA, USA). Gd chelation consists of a reaction between the Gd^3+ and arsenazo III dye under acidic conditions to form a blue–purple complex. Radioactivity was measured using a dose calibrator (Biodex Medical Systems, Shirley, NY, USA).

T1 relaxivity, 7 T MRI = assay type: physicochemical; conditions: 37°C, Gd 37, 75, 150 and 300 μM
Experimental: (§4) The size, zeta potential, and morphology of each macrocyclam derivative were determined. Size was measured using dynamic light scattering, and zeta potential was assessed by laser Doppler microelectrophoresis at an angle of 22°, with both size and zeta potential being measured using an ELS8000 instrument (Photal, Osaka, Japan). The relaxation times of Gd‐loaded materials were examined using a 7 T/20 MRI instrument (Bruker‐Biospin, Ettlingen, Germany) at 37°C. Each sample was serially diluted to Gd concentrations of 37, 75, 150, and 300 μM, and the T1‐weighted MR signal intensities of 200‐μl samples were determined. The relaxation rate, r1 (r1 = 1/T1), for each preparation was calculated from acquired images.

[4] = Hydrodynamic size by dynamic light scattering; assay type: physicochemical
Experimental: as §4

[5] = Zeta potential by laser Doppler microelectrophoresis; assay type: physicochemical
Experimental: as §4

[6] = Size stability of nanostructure in TDW, PBS or 10% serum; assay type: physicochemical; conditions: size measured in TDW, PBS or 10% serum (Figure S1)
Experimental: Fig. S1. Serum stability of macrocyclic complex
Size of ErMC was measured in TDW, PBS, or 10% serum condition.

SCC7 cells [7] = experiment: Cellular uptake, in vitro T1 MR imaging; assay type: cell-based, murine; conditions: Gd 100 μM, 24 h
Experimental: (§5) Cellular uptake was assessed by in vitro MR imaging, ICP‐MS, and scanning electron microscopy combined with energy‐dispersive x‐ray spectroscopy (SEM/EDS) analysis. For in vitro MR imaging, murine squamous cell carcinoma SCC7 cells were seeded onto six‐well plates at a density of 3 × 10^5 cells per well. After 24 h, the cells were treated with Gadovist or macrocyclam derivatives at Gd concentrations of 100 μM for 24 h. MR images were obtained and analyzed using an MRI scanner (Bruker‐Biospin). To assess enzyme‐dependent cellular uptake, 3T3‐L1 cells were pretreated with various concentrations of MMP‐9 (Sigma‐Aldrich). For ICP‐MS analysis, the cells were washed and completely dissolved with 90% nitric acid (Sigma‐Aldrich). To quantify Gd taken up by cells, the dissolved cells were digested with 1 ml of aqua regia (HCl: HNO3 = 3: 1, m/m) at 130°C. The solutions were completely dried and redissolved in deionized water, and the amounts of Gd were measured by ICP‐MS (Varian 820‐MS). For SEM/EDS analysis, SCC7 cells were seeded in cover glass‐inserted 24‐well plates at a density of 2 × 10^5 cells per well, followed by treatment of the samples for 24 h. A field‐emission SEM system (Supra 55VP; Carl Zeiss, Oberkochen, Germany) was used for SEM imaging combined with EDS mapping.

SCC7 cells [8] = experiment: Cellular uptake of Gd by ICP-MS; assay type: cell-based, murine; conditions: Gd 100 μM, 24 h
Experimental: as §5

3T3‐L1 cells [9] = experiment: Enzyme-dependent cellular uptake of Gd by ICP-MS, MMP-spiked versus blank media; assay type: cell-based; conditions: 3T3-L1 cells pretreated with MMP-9, ICP-MS
Experimental: as §5

SCC7 cells [10] = experiment: SEM/EDS elemental mapping of treated cells; assay type: cell-based, murine; conditions: 24 h
Experimental: as §5

[11] = In vivo safety, H&E histology of major organs; conditions: Balb/c mice, intravenous, Gd 3.5 mg/kg, 1 week, n = 4 per group
Experimental: (§6) The in vivo safety of macrocyclam derivatives was determined by histological and serological analyses. Five‐week‐old Balb/c mice were intravenously administered with at Gd@NrMC or Gd@ErMC at a Gd dose of 3.5 mg/kg. Briefly, NrMC (470 nmol) or ErMC (650 nmol) was mixed with gadolinium chloride in sodium acetate buffer (pH 5.0) and incubated for 2 h at 80°C. Unloaded Gd was removed using a PD‐SpinTrap™ G‐25 column. The samples including 70 μg of Gd were intravenously administered to mice. After 1 week, animals (n = 4 per group) were euthanized, and their organs (heart, lung, liver, spleen, and kidney) and sera were collected for histopathological and biochemical evaluation. Extracted organs were fixed in 10% formalin solution for 24 h and embedded in paraffin. For hematoxylin and eosin staining, each organ section was immersed in filtered Harris hematoxylin for 10 s and then in eosin for 30 s. The stained slides were visualized using a Vectra 3.0 Automated Quantitative Pathology Imaging System (PerkinElmer, Hopkinton, MA, USA), and the images were analyzed using InForm v2.4.11. software (PerkinElmer). The serum concentrations of alanine aminotransferase (ALT), aspartate aminotransferase (AST), […] (ALP), blood urea nitrogen (BUN), and total bilirubin (TBIL) were measured using an automatic chemistry analyzer (DRI‐CEHM 3500s; Fujifilm, Kanagawa, Japan).

[12] = In vivo safety, serum biochemistry (ALT, AST, ALP, BUN, TBIL); conditions: Balb/c mice, Gd 3.5 mg/kg, 1 week after injection, compared with untreated mice
Experimental: as §6

[13] = Copper-64 chloride loading, radioactivity by dose calibrator; assay type: physicochemical; conditions: sodium acetate buffer pH 5.0, 2 h at 80°C
Experimental: as §3

SCC7 tumor [14] = experiment: In vivo PET/CT imaging of tumor-bearing mice
Experimental: as §1, §2

O=C([O-])CN1CCN(CC(=O)[O-])CCN([C@H](CO)[C@H](O)CO)CCN(CC(=O)[O-])CC1.[Gd+3] (racemic) [Gadovist, reference compound]
viability of cells (MTT) (3T3‐L1 cells [1]): no effect | change of tumor/normal tissue (TN) ratio over time (SCC7 tumor [2]; 1 h to 24 h after intravenous injection): not enhanced over time

GGPLGVRGGGGG-OH [Gd@ErMC, Gd loaded into enzyme-responsive macrocyclam modified with a PEGylated MMP-cleavable peptide; self-assembled nanoparticles]
gadolinium loading capacity [3]: 29.3 ± 14.5 mol% | longevity relaxivity (r1) (T1 relaxivity, 7 T MRI): 33.4 mM⁻¹ s⁻¹ | hydrodynamic size [4]: 310.2 ± 50.2 nm | zeta potential [5]: slightly positive | nanostructure in physiological conditions [6]: maintained | T1 MRI signal of MMP-overexpressing cells (SCC7 cells [7]): higher for the Gd@ErMC group than for other groups | intracellular Gd concentration relative to Gd@NrMC-treated cells (SCC7 cells [8]): 32.2 fold | Gd accumulation in cells treated with MMP relative to blank media (3T3‐L1 cells [9]): 7.2 fold | colocalization of Gd on the cell surface (EDS-SEM) (SCC7 cells [10]): bound to cell membranes | tumor/normal tissue (TN) ratio (SCC7 tumor [2]; 1 h after intravenous injection): 1.8 | tumor/normal tissue (TN) ratio (SCC7 tumor [2]; 24 h after intravenous injection): 3.4 | histology of heart, lungs, liver, spleen and kidneys [11]: no visible microscopically abnormal features | liver and kidney function enzyme levels in blood [12]: within normal range

GGPLGVRGGGGG-OH [^64Cu@ErMC]
copper-64 chloride loading capacity [13]: 22.4% | percentage of injected 64Cu in tumors relative to 64Cu@NrMC-treated mice (SCC7 tumor [14]; 24 h post-dose): 2.9 fold | percentage of injected 64Cu in tumors relative to 64Cu@NrMC-treated mice (SCC7 tumor [14]; 48 h post-dose): 2 fold | PET signal in tumor tissue (SCC7 tumor [14]; intravenous, approximately 240 μCi/mouse, SCC7 tumor-bearing mice): enhanced signals
